This passage reports EC50 and IC50 results from patent US20240400583A1, “TRICYCLIC SULFAMIDES AND SULTAMS” (Merck Sharp & Dohme LLC, priority 2021, published 2024).

In test [1] the target is T1, DCAF15 RBM39 ternary complex (Homo sapiens, UniProt Q14498+Q66K64, DEL276-383).
T1 construct: RBM39 (aa 150 to 331; UniProt: Q14498); TEV cleavage site (pGEX4T3 vector); made in house; host or cells: Sf9 (baculovirus) for the triplex; E. coli for the RBM39 fragment according to b294
The test is described as follows: DCAF15 RBM39 Ternary Complex Formation Assay. Type of test: binding. The following applies: apparent EC50 for compound-induced complex formation, 10 nM DCAF15 triplex, 50 nM RBM39 R1R2, FRET 665/615. From the text:
(§1) Proteins used for the assays were as follows: Human DDA1 (UniProt:Q9BW61), DDB1 (UniPro:Q16531), and DCAF15 (UniProt:Q66K64) coding sequences were cloned into pFastBac1 vectors and were co-expressed in Sf9 cells using Bac-to-Bac baculovirus expression system (Thermo Fisher Scientific). The expression construct for DCAF15 includes a N-terminal His6-tag to facilitate the purification. The atrophin-1 homology region of DCAF15 (amino acid residues 276-383) was excised (Apro, originally to facilitate crystallization). Triplex of DDA1-DDB1ΔB-DCAF15Apro, which has the BPB domain (aa 396 to 705) excised and replaced with a GNGNSG linker, was used in all the kinetic measurements because of the higher yield. R^1R^2 of RBM39 (aa 150 to 331; UniProt: Q14498) contained a C-terminal FLAG tag used in the DCAF15/RBM39 complex formation assay. DCAF15 Displacement Assay (Displacement FRET KD)
His-tagged DDA1-DDB1ΔB-DCAFISΔpro triplex and RIR2 with a C-terminal FLAG were used in the assay and compound-induced complex formation was monitored through resonance transfer between europium-labeled anti-His antibody and APC-labeled anti-FLAG antibody (AD0059F, Perkin Elmer).

A further test has as its target T2, DCAF15 (Homo sapiens, UniProt Q66K64, DEL276-383).
T2 construct: made in house; host or cells: Sf9 (baculovirus, Bac-to-Bac)
Nature of the test: DCAF15 Displacement Assay (displacement of probe PT7795, FRET). To be noted: competition with 300 nM PT7795 on DDA1-DDB1ΔB-DCAF15Δpro triplex, 18 hours incubation, FRET 665/615. Type of test: binding.
From the text: as §1
The previously described procedure was followed (See X. Du, et al., “Structural Basis and Kinetic Pathway of RBM39 Recruitment to DCAF15 by a Sulfonamide Molecular Glue E7820”, Structure, 27, 1625-1633.e3, 2019). Synthesis of the probe PT7795 is described in the article.
Binding of PT7795 to DDA1-DDB1ΔB-DCAF15Apro was measured by the FRET signal between europium-labeled anti-His antibody (AD0205, Perkin Elmer) that is associated with His-tagged DCAF15 and ALX647 moiety in PT7795. The concentration of PT7795 was varied from 2.3 nM to 1000 nM in 16 wells, each containing 25 mM HEPES pH7.5, 100 mM NaCl, 0.1 mg/ml BSA, 0.005% Tween 20, 0.5 mM TCEP, 4% DMSO, 0.5 nM europium-labeled anti-His antibody, and 10 nM triplex of DDA1-DDB1 DB-DCAF15 Apro. After equilibrating for 2-3 hours at 4° C., the plate was removed from the incubator, briefly spun, then read on a Spark 10 (Tecan) at the excitation/emission wavelength of 340 nm/615 nm and 340 nm/665 nm. To obtain Kd, the ratio of 665/615 readings was fitted to Equation 1, where F stands for the ratio of 665/615 […].
Binding of compounds in this disclosure to DCAF15 was measured in a competition by the displacement of PT7795. The concentration of PT7795 was kept at 300 nM while the concentration of a compound was varied from 0.01 to 100 μM. The incubation time was increased to 18 hours for enhanced signal to noise level. To obtain IC50, the ratio of 665/615 readings was fitted to Equation 2, where n is Hill slope.

SMILES strings stand for the structures. pEC50, pIC50: −log10 of the molar value.

As to `COC(=O)CCCc1[nH]c2c3c(cc(Cl)c2c1Cl)CN(Cc1ccnc(O)c1)S(=O)(=O)N3` [Compound 24, methyl 4-(6,7-dichloro-3-((2-hydroxypyridin-4-yl)methyl)-2,2-dioxido-1,3,4,9-tetrahydro-[1,2,6]thiadiazino[4,3-g]indol-8-yl)butanoate], in test [1], the negative logarithm of the EC50 (pEC50) was below 4.60. In addition, the pIC50 on DCAF15 was 6.50.

What is called pEC50 is the EC50 on a negative log10 scale, so that one unit is a factor of ten. What is called pIC50 is −log10 of the IC50, conventionally taken in molar units.
